{"source": "paper PMC9126943", "about": "“ADAMTS4-specific MR probe to assess aortic aneurysms in vivo using synthetic peptide libraries” (Nature Communications, 2022)", "key": {"[1]": {"molecular_target": "T1, ADAMTS4 in the aortic wall of ApoE−/− mice (Mus musculus, UniProt Q8BNJ2)", "T1 construct": "from tissue", "T1 sequence (Q8BNJ2 209-833)": "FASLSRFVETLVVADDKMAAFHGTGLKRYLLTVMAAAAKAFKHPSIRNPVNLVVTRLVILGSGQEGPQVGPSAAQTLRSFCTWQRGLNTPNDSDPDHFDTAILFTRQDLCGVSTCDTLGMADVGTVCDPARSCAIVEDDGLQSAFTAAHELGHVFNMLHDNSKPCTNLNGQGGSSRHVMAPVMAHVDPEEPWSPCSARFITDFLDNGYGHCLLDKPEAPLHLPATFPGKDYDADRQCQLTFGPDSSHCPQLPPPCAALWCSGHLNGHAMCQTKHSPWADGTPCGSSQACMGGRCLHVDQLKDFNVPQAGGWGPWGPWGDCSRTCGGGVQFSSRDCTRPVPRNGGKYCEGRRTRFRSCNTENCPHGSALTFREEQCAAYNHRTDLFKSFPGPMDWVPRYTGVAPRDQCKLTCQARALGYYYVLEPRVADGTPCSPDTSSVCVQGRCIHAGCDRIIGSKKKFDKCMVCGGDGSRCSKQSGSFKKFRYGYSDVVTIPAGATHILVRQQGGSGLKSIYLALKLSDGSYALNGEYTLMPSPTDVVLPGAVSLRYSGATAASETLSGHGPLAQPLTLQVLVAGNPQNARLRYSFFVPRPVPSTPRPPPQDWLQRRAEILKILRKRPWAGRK", "assay": "In vivo MRI, early detection study (days 2, 4, 10)", "settings": "for ADAMTS4-MRI signal (CNR): day 4 of AngII", "procedure": "For the early detection study, we used an AAA group (n = 20). MR imaging was performed after 2, 4, and 10 days of AngII-infusion. At each time point, mice were scanned prior to and following the administration of the ADAMTS4-specific probe (0.13 mmol/kg body weight). On day 28 post implantation, only native imaging was performed and subsequently, the aortic samples were excised.\nMR imaging was performed using a clinical 3 T Siemens system (Biograph, Siemens Healthcare Solutions, Erlangen, Germany). The system was equipped with a 4-channel receive-coil array for mouse body applications (Mouse Heart Array, P-H04LE-030, Version 1, Rapid Biomedical, Germany). Following anesthesia injection, the animals were positioned in a prone position, and body temperature (37 °C) was monitored using an MR-compatible heating system (Model 1025, SA Instruments Inc, Stony Brook, NY) to avoid rapid cooling. For intravenous administration of the molecular probe, venous access was established using a small diameter tube with an attached 30 G cannula. The imaging protocol included the following sequences:\nAfter a three-dimensional (3D) gradient-echo scout scan, a non-contrast-enhanced two-dimensional time-of-flight angiography (2D TOF) was acquired in transverse orientation for visualization of the abdominal aorta with the following parameters: field of view (FOV) of […], a matrix of 960 × 960, resolution of 0.2 × 0.2 × 0.5 mm, 40 slices, repetition time (TR)/echo time (TE) of 35 ms/4.44 ms, flip angle of 90°, and bandwidth of 124 Hz/Px. A maximum intensity projection (MIP) was then automatically generated to obtain an arterial angiogram of the abdominal aorta for planning the subsequent MR angiography and delayed-enhancement scans. A 2D inversion time (TI) scout sequence, planned perpendicular to the abdominal aorta, was used to determine the optimal TI for blood-signal nulling. Acquisition parameters were as follows: for the 2D TI sequence—FOV 340 × 340 mm, matrix 576 × 576, spatial resolution 0.6 × 0.6 × 3 mm, TR/TE 44.91 ms/2.09 ms, flip angle 35°, bandwidth 579 Hz/Px, TR between subsequent IR pulses 1000 ms; and for the high-resolution 3D IR FLASH sequence—FOV 57 × 57 mm, matrix 384 × 384, spatial resolution = 0.1 × 0.1 × 0.3 mm, 56 slices, TR/TE = 1019.72/7.02 ms, flip angle 30°, bandwidth 130 Hz/px, TR between subsequent IR pulses = 1000 ms.\n(§1) Analysis of resulting MR images was performed using OsiriX (version 7.1, OsiriX Foundation, Bernex, Switzerland). All morphometric measurements were conducted on high-resolution MRI images. In order to assess the signal intensities, regions of interest (ROIs) were measured as areas of signal enhancement, which were co-localized with areas of aneurysmal-aortic tissue. For these areas, the CNR was calculated using the following formula: CNR = (Combined vessel-wall and aneurysmal-aortic-tissue-signal − blood-signal)/standard-deviation-signal (noise). The signal of noise was defined as the standard deviation in pixel intensity from an ROI placed in the background air anterior to the aorta."}, "[2]": {"molecular_target": "T2, ADAMTS4 in the aneurysmal aortic wall of ApoE−/− mice (Mus musculus, UniProt Q8BNJ2)", "T2 construct": "from tissue", "T2 sequence (Q8BNJ2 209-833)": "T1 sequence (Q8BNJ2 209-833)", "assay": "In vivo competition experiment", "procedure": "An in vivo competition experiment was performed in 3 ApoE^−/− mice (n = 3) 4 weeks after AAA induction. On day 1, MR imaging was performed prior to and following the intravenous administration of the ADAMTS4-specific probe. On day 2, MRI was performed prior to and after the injection of a 7-fold higher dose of the non-paramagnetic europium-labeled ADAMTS4-specific probe. Then, a clinical dose of the ADAMST4 specific probe (0.13 mmol/kg) was administered with the following imaging after 20 min.\nas §1"}, "[3]": {"molecular_target": "T1, ADAMTS4 in the aortic wall of ApoE−/− mice", "assay": "In vivo MRI with negative control probe and ADAMTS4-specific probe", "settings": "for CNR post administration, individual animals: d1 = negative control probe, d2 = ADAMTS4-specific probe, 0.13 mmol/kg", "procedure": "In vivo MR imaging was performed in 6 ApoE^−/− mice (n = 6): three mice (n = 3) received AngII through the osmotic minipumps, three mice (n = 3) received saline, serving as the control group. MR imaging was performed 4 weeks after minipump implantation. On day 1, a native MR scan was followed by the intravenous injection of the negative control peptide (0.13 mmol/kg) and a subsequent MR scan. 24 h later, mice were imaged prior to and following the intravenous administration of the ADAMTS4-specific probe (0.13 mmol/kg).\nas §1"}}, "note": "Where “and” joins values, the source holds several entries; their conditions need not be identical. Identical values can stand only once. Where a SMILES comes first, the peptide text is derived from it. Bridges are numbered along the chain shown (N, C = ends). The star is where a group is joined. DOTA = O=C(O)CN1CCN(CC(=O)O)CCN(CC(=O)*)CCN(CC(=O)O)CC1", "data": [{"smiles": "N=C(N)NCCC[C@@H]1NC(=O)[C@H](CCCNC(=N)N)NC(=O)[C@H](CO)NC(=O)[C@@H](N)CSSC[C@@H](C(=O)N[C@@H](CO)C(=O)NCC(=O)NCC(=O)N[C@@H](CO)C(=O)NCC(=O)NCC(=O)N[C@@H](CCCCNC(=O)CN2CCN(CC(=O)O)CCN(CC(=O)O)CCN(CC(=O)O)CC2)C(=O)NCC(N)=O)NC(=O)CNC1=O", "note": "(Gd complex, metal not drawn) [ADAMTS4-specific probe] (H-CSRRGCSGGSGGK(DOTA)G-NH2; disulfide 1-6)", "values": [{"measurement": "ROC curve area for prediction of a fatal AAA rupture", "setting": "[1]; ADAMTS4-MRI level after 4 days", "value": 0.96}, {"measurement": "sensitivity for prediction of a fatal AAA rupture (ROC)", "setting": "[1]; ADAMTS4-MRI level after 4 days", "value": 0.88}, {"measurement": "specificity for prediction of a fatal AAA rupture (ROC)", "setting": "[1]; ADAMTS4-MRI level after 4 days", "value": 0.9}, {"measurement": "ADAMTS-4 levels (CNR)", "setting": "[1]; day 4, subgroup n = 4 without significant outward remodeling on MRI", "value": "11.7±0.8"}, {"measurement": "ADAMTS4-MRI signal (CNR)", "setting": "[1]; animals that developed an AAA and survived for 4 weeks", "value": "10.3 ± 1.1"}, {"measurement": "ADAMTS4-MRI signal (CNR)", "setting": "[1]; animals that did not develop an AAA", "value": "6.9 ± 1.2"}, {"measurement": "ADAMTS4-MRI signal (CNR)", "setting": "[1]; animals with fatal AAA rupture", "value": "15.2 ± 0.7"}, {"measurement": "CNR d1 post, individual animals", "setting": "[2]; day 1, Gd-labeled probe alone", "value": "10.05 and 8.83 and 9.84"}, {"measurement": "CNR d2 post, individual animals", "setting": "[2]; day 2, after 7-fold dose of Eu-labeled probe followed by Gd-labeled probe 0.13 mmol/kg", "value": "5.81 and 4.92 and 5.19"}, {"measurement": "increase in MR signal / CNR in the aortic wall, in words", "setting": "[3]; 0.13 mmol/kg i.v., 4 weeks after minipump implantation, n = 6", "value": "strong and significant increase"}, {"measurement": "CNR post administration, individual animals", "setting": "[3]; AAA (AngII) mice", "value": "10.87 and 12.24 and 11.33"}, {"measurement": "CNR post administration, individual animals", "setting": "[3]; control (c, saline) mice", "value": "6.48 and 5.75 and 6.1"}]}]}
